Source: patent US5849737A, “Compositions and methods for treating pain” (priority 1995, dated 1998)
“Also recorded” adds a separate entry of the source. Read-outs that look alike come from different tables or passages of the source.

Experiments:
[1] = tested on: tactile allodynia (paw withdrawal thresholds); assay: Mechanical allodynia after single i.p. dose in SD rats (left L5/L6 spinal nerve ligation); type: in vivo
[2] = tested on: tactile allodynia (paw withdrawal thresholds); assay: Tactile allodynia (50% paw withdrawal threshold, von Frey) after intrathecal drug, L5/L6 spinal nerve ligated rats; type: in vivo, Male Harlan Sprague-Dawley rats
Procedure: Male Harlan Sprague-Dawley rats were used (100-200 g). Rats were housed 2-3 to a cage with corn cob bedding and Purina rat chow and water ad libitum, in a standard facility with a 12 h/ 12 h day/night cycle. After surgical procedures involving chronic indwelling catheter insertion, animals were housed singly to prevent catheter damage.
Rats were allowed to recover 5-7 days before further testing or surgeries.
The catheters were 9 cm in intrathecal length and terminated near the lumbar enlargement. The rostral 3 cm of catheter was tunneled under the skin to externalize between the ears. Rats with neurologic deficits were discarded.
Monoethylglycinexylidide (MEGX) was dissolved in physiologic saline; 3-hydroxylidocaine (3-OH L) was dissolved in DMSO for intravenous administration.
Intravenous drugs were delivered to awake, unrestrained rats by slow infusion using a syringe pump (Harvard apparatus 22). Intrathecal drugs were delivered to awake, briefly restrained rats in a volume of 10 μl, followed by 10 μl of vehicle flush, using a calibrated tubing extension with a 30-gauge adapter fitting the implanted intrathecal catheter, attached to a geared Hamilton 100 μl glass syringe. IT drug delivery was monitored by observing the advancement of a small air bubble down the tubing.
Rats were placed in a plastic cage with an open wire mesh bottom and allowed to accommodate for approximately fifteen minutes. […] In brief, von Frey hairs were sequentially applied using an up-and-down paradigm to the left mid-plantar hindpaw with sufficient force to cause slight filament buckling. Positive responses were noted if the paw was sharply withdrawn. […] Otherwise, PWT were calculated by noting the stimulus level at which the first change in behavior occurred, collecting four additional responses to the continued up-and-down oscillation of stimulus presentation around the response threshold, and interpolating the 50% response threshold. […] The following equation was used to compute %MPE: [formula]
Plasma drug levels and PWT were correlated using linear regression. Serially measured PWT and %MPE were compared using repeated measures ANOVA.

Solubility = type: physicochemical; conditions: IT vehicle 10% DMSO, 25% propylene glycol, 25% ethanol, 40% saline; injected volume 10 μl
Source text: The free base forms of the compounds of general formula I are not water-soluble; for example, it was necessary to dissolve the free base of 3-hydroxylidocaine in a vehicle containing an empirically determined mixture of ethanol, dimethyl sulfoxide, propylene glycol and saline for application to the rat spinal cord. The physiologically-acceptable salt forms of the compounds of general formula I employed in accordance with the present invention, in contrast, are generally water-soluble to at least some degree, and the solubility properties thereof can be in many cases improved by conjugation. Unlike the free base forms of the compounds of general formula I, the salt forms may be administered by a variety of known routes [e.g., oral intravenous, intrathecal, local (e.g., intraneuromal), epidural, transdermal, etc.] as would be readily appreciated by those skilled in the art. As is conventional practice in the art, the active agent of general formula I is typically administered in a pharmaceutically acceptable carrier or excipient (e.g., saline).

[3] = DA rats; some species of rats; cited from earlier work
P450 PA(P45OIA2) enzyme = conditions: lidocaine metabolite formation; cited from earlier work
[4] = tested on: tactile allodynia (paw withdrawal thresholds); assay: Mechanical allodynia after single i.p. dose in DA rats (left L5/L6 spinal nerve ligation); type: in vivo
[5] = cited from earlier work
[6] = tested on: tactile allodynia (paw withdrawal thresholds); assay: Tactile allodynia (50% paw withdrawal threshold, von Frey) after intravenous drug, L5/L6 spinal nerve ligated rats; type: in vivo, Male Harlan Sprague-Dawley rats
Source text: For intravascular access, external jugular catheters were fashioned from PE-50 tubing and inserted into an external jugular vein under halothane/oxygen anesthesia. Arterial catheters were also fashioned from PE-50 with a small bouton 1 cm from the intravascular end for suture securing; they were inserted into a carotid artery, taking care to spare the surrounding nerves. All catheters were flushed with heparinized saline (10 U/ml) and tunneled subcutaneously to emerge at the posterior base of the neck, and capped when not in use. […] Rats were placed in a plastic cage with an open wire mesh bottom and allowed to accommodate for approximately fifteen minutes. A series of 8 von Frey filaments with logarithmically incremental stiffness (0.41, 0.70, 1.20, 2.00, 3.63, 5.50, 8.50, and 15.10 g) (Stoelting, Wood Dale, Ill.) was used to determine the 50% threshold for paw withdrawal to light mechanical stimuli (PWT). In brief, von Frey hairs were sequentially applied using an up-and-down paradigm to the left mid-plantar hindpaw with sufficient force to cause slight filament buckling. Positive responses were noted if the paw was sharply withdrawn. […] Otherwise, PWT were calculated by noting the stimulus level at which the first change in behavior occurred, collecting four additional responses to the continued up-and-down oscillation of stimulus presentation around the response threshold, and interpolating the 50% response threshold. […] The following equation was used to compute %MPE: [formula] Plasma drug levels and PWT were correlated using linear regression. Serially measured PWT and %MPE were compared using repeated measures ANOVA.

CCN(CC)CC(=O)Nc1c(C)ccc(O)c1C [3-OH L, 3-hydroxylidocaine]
duration of significant effect on allodynia, SD rats ([1]; 3-OHL 15 mg/kg i.p., N=6, P<0.05, followed for 7 days): up to 7 days | magnitude and duration of effect of 15 mg/kg 3-OHL relative to 60 mg/kg lidocaine in SD rats ([1]; i.p. (FIG. 7)): apparently shorter duration | effect on tactile allodynia, SD rats ([1]; single i.p. dose, lidocaine 60 mg/kg, 3-OHL 15 mg/kg (P<0.05)): persistently reduced allodynia in both strains; also recorded: persistent suppression of allodynia | persistence of allodynia suppression after single IT dose ([2]; 3-OH L 58 μg IT single dose, follow-up period): 5 days | thresholds at 5 days post treatment ([2]; 3-OH L 58 μg IT, N=6, baseline 2.7±0.2, vehicle 2.2±0.5, P=0.0008, unit not given): 9.3±2.5 | PWT at 60 minutes after IT treatment ([2]; 3-OH L 58 μg IT, baseline 2.3±0.39 g, P<0.0001): 10.66 ± 2.3 g | duration of effect on allodynia, IT route ([2]; IT): long lasting effect by the IT route | effect on allodynia thresholds after IT delivery ([2]; IT, lidocaine 500 μg, MEGX 500 μg, 3-OH L 58 μg): suppressed allodynia after IT administration; also recorded: significantly effective at suppressing allodynia | highest dose soluble in the vehicle (Solubility): 58 µg | 3-hydroxylation / production of 3-OH L in rats [3]: Some species of rats predominantly produce 3-OH L | enzyme producing the metabolite 3-OH L (P450 PA(P45OIA2) enzyme): produced by the P450 PA(P45OIA2) enzyme | duration of significant effect on allodynia, DA rats ([4]; 3-OHL 15 mg/kg i.p., N=5, P<0.002, followed for 7 days): up to 7 days | effect on tactile allodynia, DA rats ([4]; single i.p. dose, lidocaine 60 mg/kg, 3-OHL 15 mg/kg (P<0.002)): persistently reduced allodynia in both strains; also recorded: persistent suppression of allodynia | production of 3-OH L in humans [5]: humans do produce some 3-OH L | production of 3-OH L in humans ([5]; listed as 3-OHL): very small quantities | PWT after infusion ([6]; 3-OH L IV in DMSO, 20 mg/kg total (FIG. 2), N=4, baseline 1.57±0.5 g, P=<0.0001): 15 ± 0 g | duration of effect on allodynia, IV route ([6]; IV): not by the IV route | potency and onset of allodynia suppression relative to lidocaine ([6]; IV 3-OH L compared with parent compound): more potent with regard to this effect; also recorded: far more rapid onset | allodynia suppression by IV delivery ([6]; IV, N=4): highly active when administered intravenously; also recorded: both potent and effective at suppressing allodynia; also recorded: complete normalization
